Laboratory results as given in PMC10472371, “Discovery of E2730, a novel selective uncompetitive GAT1 inhibitor, as a candidate for anti‐seizure medication” (Epilepsia Open, 2023).
Entries after “also recorded” stand apart in the source; their conditions may differ.

Tests used:
[1] = system: extracellular GABA concentration in mouse hippocampus; assay: Microdialysis: extracellular GABA concentration in mouse hippocampus; format: in vivo
Experimental: A guide cannula was implanted in the left hippocampus (2.7 mm posterior, 3.3 mm left, and 1.8 mm below from the bregma) of ddY mice (male, 5 weeks old). After 5–7 days of recovery, a microdialysis probe (Eicom) was inserted into the left hippocampus through the guide cannula. The tip of the microdialysis probe reached 4.8 mm below the bregma. The next day, the probe was connected to a perfusion tube and perfused with Ringer solution (containing 147.0 mM NaCl, 4.7 mM KCl, 0.6 mM MgSO4, 2.5 mM CaCl2, 5.0 mM HEPES, pH 7.4) at a flow rate of 1.5 μL/min. After ≥160 minutes of perfusion, collection of the perfusate (30 μL/20 min/fraction) was initiated, and 12 fractions per animal were collected for 240 minutes. E2730 (10–100 mg/kg), tiagabine (3–30 mg/kg), or vehicle was orally administered 72 minutes after initiating sample collection. Tiagabine was used as a reference ASM of a non‐competitive GAT1 inhibitor. Perfusate was switched from Ringer solution to high‐potassium Ringer solution (51.7 mM NaCl, 100.0 mM KCl, 0.6 mM MgSO4, 2.5 mM CaCl2, 5.0 mM HEPES, pH 7.4) after 127 minutes following the collection. GABA concentration in each sample was measured by a high‐performance liquid chromatography with tandem mass spectrometry method.

corneal kindling mice = assay: Corneal kindling in mice; format: in vivo; settings: Mus musculus; oral, 1 hour before electrical stimulation; read-out: ED50 (95% CI) in corneal kindling mice
Excerpt: A corneal kindling mouse model was developed following the method described by Potschka and Löscher.[7] Male C57BL/6N mice (5 weeks old; Charles River Laboratories Japan, Japan) were stimulated using corneal electrodes (4 mA, 50 Hz, 3‐second duration each) twice daily for 10 consecutive days, and stimulated mice were observed and rated based on the Racine's scale (0, no seizure; 1, mild facial clonus and eye blinking; 2, severe facial clonus, head nodding, or chewing; 3, unilateral or alternating forelimb clonus; 4, bilateral forelimb clonus and rearing; 5, bilateral forelimb clonus with rearing and falling). Mice with scores ≥3 were deemed epileptic, whereas mice with scores <3 were deemed non‐epileptic. Mice rated 4 or 5 (i.e. fully kindled mice) were used for drug evaluation.

Scn1a+/- mice = assay: Hyperthermia-induced seizures in Scn1a+/- mice (Dravet syndrome model); format: in vivo, mouse
Experimental: Scn1a heterozygous mutant (Scn1a ^+/−) mice, a model of Dravet Syndrome (DS), and the littermate wild‐type (Scn1a ^+/+) mice (male, 24–28 days postnatal; Jackson Laboratory, US) received E2730 (10, 20 mg/kg) or vehicle orally 1 hour before hyperthermia stimulation. A rectal temperature probe (Physitemp, NJ) was fitted at 50 minutes post‐treatment, and mice were acclimated to the probe and test chamber for 10 minutes. At 1‐hour post‐treatment, core body temperature was elevated by a heat lamp connected to a feedback temperature controller (Physitemp) by 0.5°C every 2 minutes until a maximum of 42.5°C was reached. The threshold body temperatures for generalized tonic–clonic seizures were recorded for each mouse. The cut‐off time was set as 180 seconds.

hNav1.2 = molecular target: T1, hNav1.2 (Homo sapiens, UniProt Q99250); assay: Veratridine-induced hNav1.2 activation in CHO cells, membrane potential assay; format: cell-based; settings: up to 100 μM, veratridine 50 μM
T1 construct: expressed in transfected cells; host or cells: CHO
T1 sequence (Q99250 whole entry): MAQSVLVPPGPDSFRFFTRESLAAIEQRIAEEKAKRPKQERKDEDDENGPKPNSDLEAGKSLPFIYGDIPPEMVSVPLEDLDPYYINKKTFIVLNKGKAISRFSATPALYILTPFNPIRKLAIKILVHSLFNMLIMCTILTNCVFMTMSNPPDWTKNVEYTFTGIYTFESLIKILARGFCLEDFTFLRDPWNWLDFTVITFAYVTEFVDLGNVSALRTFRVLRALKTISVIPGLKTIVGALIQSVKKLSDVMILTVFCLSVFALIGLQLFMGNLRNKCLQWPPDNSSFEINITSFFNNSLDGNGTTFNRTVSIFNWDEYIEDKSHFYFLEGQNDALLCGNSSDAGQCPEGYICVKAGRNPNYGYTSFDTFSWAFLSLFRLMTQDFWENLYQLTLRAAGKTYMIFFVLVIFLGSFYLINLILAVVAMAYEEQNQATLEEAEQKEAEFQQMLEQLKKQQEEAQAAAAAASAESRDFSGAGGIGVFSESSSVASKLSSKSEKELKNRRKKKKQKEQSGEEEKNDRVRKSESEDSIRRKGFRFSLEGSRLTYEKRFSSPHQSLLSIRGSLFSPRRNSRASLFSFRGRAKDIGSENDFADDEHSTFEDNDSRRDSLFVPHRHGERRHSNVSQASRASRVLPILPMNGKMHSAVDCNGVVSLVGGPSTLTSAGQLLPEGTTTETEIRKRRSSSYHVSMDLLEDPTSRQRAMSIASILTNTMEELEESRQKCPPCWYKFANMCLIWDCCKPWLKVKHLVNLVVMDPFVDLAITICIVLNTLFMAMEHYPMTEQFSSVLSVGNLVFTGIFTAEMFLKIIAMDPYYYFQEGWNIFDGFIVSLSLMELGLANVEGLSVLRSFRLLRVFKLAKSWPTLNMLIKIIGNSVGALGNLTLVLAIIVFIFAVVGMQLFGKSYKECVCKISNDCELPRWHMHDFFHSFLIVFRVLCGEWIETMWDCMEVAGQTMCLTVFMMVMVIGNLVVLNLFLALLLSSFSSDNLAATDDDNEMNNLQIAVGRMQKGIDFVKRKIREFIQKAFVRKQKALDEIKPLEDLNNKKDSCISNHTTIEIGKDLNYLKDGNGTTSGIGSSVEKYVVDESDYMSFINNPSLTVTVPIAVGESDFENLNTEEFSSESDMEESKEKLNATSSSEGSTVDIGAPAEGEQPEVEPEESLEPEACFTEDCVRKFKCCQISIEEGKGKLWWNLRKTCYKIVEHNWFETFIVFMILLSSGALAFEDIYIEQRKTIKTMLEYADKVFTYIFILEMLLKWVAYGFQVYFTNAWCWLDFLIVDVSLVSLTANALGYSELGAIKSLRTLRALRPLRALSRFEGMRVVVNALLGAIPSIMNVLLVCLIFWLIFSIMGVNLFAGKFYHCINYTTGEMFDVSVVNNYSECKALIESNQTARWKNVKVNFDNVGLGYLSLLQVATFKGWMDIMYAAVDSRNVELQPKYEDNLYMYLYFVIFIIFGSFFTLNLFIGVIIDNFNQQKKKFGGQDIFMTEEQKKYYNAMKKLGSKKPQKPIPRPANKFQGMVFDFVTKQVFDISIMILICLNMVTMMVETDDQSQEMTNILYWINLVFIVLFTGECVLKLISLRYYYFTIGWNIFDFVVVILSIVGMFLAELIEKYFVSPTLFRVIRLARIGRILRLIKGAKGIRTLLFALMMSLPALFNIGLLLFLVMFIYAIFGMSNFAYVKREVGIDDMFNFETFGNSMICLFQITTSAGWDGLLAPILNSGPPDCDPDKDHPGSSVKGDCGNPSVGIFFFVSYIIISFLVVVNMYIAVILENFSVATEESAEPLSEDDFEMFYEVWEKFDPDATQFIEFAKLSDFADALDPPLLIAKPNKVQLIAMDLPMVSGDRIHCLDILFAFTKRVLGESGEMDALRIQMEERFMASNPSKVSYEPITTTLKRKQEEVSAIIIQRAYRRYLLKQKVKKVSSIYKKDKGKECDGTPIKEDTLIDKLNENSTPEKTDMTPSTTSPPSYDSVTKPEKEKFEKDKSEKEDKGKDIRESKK
Experimental: Data represent the mean ± SEM of three independent experiments. Effects of E2730 and desipramine (Sigma-Aldrich, MO) on hNav1.2 activity were evaluated in CHO cells stably expressing hNav1.2 using a fluorescent-based membrane potential assay (Molecular Devices, CA). Activation of hNav1.2 was induced by veratridine (50 μM) and the change of fluorescence (excitation wavelength, 480 nm; emission wavelength, 540 nm) was recorded using Fluorescence Drug Screening System 6000 (Hamamatsu Photonics, Japan).

hGAT3 = molecular target: T2, hGAT3 (Homo sapiens, UniProt P48066); assay: [3H]GABA uptake in hGAT3 stably expressing HEK293 cells; format: cell-based; settings: 50 μM [3H]GABA
T2 construct: expressed in transfected cells; host or cells: HEK293
T2 sequence (P48066 1-632): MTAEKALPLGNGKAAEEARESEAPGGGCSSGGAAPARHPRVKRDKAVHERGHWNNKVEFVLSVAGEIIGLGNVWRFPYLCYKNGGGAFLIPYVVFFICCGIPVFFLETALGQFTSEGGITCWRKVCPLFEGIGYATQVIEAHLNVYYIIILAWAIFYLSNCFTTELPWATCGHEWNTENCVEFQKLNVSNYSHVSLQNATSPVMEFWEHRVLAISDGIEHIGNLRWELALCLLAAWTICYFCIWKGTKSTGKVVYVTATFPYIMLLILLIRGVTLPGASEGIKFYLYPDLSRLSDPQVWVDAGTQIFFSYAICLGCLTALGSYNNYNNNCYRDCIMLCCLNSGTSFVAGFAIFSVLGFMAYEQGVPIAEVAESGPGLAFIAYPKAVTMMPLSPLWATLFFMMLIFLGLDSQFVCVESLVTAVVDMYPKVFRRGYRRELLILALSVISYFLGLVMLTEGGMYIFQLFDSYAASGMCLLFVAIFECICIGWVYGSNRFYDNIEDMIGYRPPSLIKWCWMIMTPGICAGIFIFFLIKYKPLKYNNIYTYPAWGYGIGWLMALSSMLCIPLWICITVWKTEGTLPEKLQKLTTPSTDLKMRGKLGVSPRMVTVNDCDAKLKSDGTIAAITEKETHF
Experimental: HEK293 cells stably expressing human GAT1 (hGAT1), GAT2 (hGAT2), GAT3 (hGAT3), or betaine/GABA transporter 1 (hBGT‐1) were plated onto 96‐well microtiter plates at a density of 4.0 × 10^4 cells/well in Dulbecco's Modified Eagle's Medium (DMEM, containing 10% fetal bovine serum, 100 units/mL penicillin, 100 μg/mL streptomycin, 1% non‐essential amino acid solution, and 25 mM HEPES) and incubated overnight at 37°C in a 5% CO2 atmosphere. After washing the cells with Hanks’ balanced salt solution (HBSS, containing 140 mg/L CaCl2, 100 mg/L MgCl2, 20 mM HEPES, and 10 mM NaOH), E2730 (0.0128–1000 μM) was added to the plate. Following the addition of 50 μM [^3H]GABA, cells were incubated for 5 minutes at 37°C in a 5% CO2 atmosphere and then washed with cold HBSS. Washed cells were incubated in a scintillator for 1 hour at room temperature, followed by radioactivity measurements using a liquid scintillation counter.

[2] = mouse hippocampus, oral, E2730 10-100 mg/kg, tiagabine 3-30 mg/kg

Compound: NS(=O)(=O)N[C@H]1c2c(F)cc(F)cc2CC1(F)F [E2730]
- effect on high-potassium-induced extracellular GABA concentration ([1]; E2730 10 mg/kg): not statistically significant
- effect on high-potassium-induced extracellular GABA concentration ([1]; E2730 30 and 100 mg/kg): significantly increased
- effect on basal extracellular GABA concentration [1, 2]: no significant difference; also recorded: did not increase; also recorded: did not affect
- effect on high-potassium-induced extracellular GABA concentration [1, 2]: significant increase
- ED50 (corneal kindling mice): 7.9 mg/kg
- seizure occurrence in littermate WT (Scn1a+/+) mice (Scn1a+/- mice; 20 mg/kg, maximum temperature of 42.5°C): No seizures occurred
- median threshold body temperature for generalized tonic-clonic seizures (Scn1a+/- mice; Scn1a+/- mice, 10 mg/kg oral): 41.2 °C
- median threshold body temperature for generalized tonic-clonic seizures (Scn1a+/- mice; Scn1a+/- mice, 20 mg/kg oral): 42.4 °C
- Minimum effective dose, hyperthermia-induced seizures (Scn1a+/- mice; Scn1a+/- mice, oral, footnote a: minimum effective dose): 10 mg/kg
- effect on hNav1.2 activation (hNav1.2): did not inhibit; also recorded: did not directly affect
- IC50 (hGAT3): > 1000 µM
